These results are taken from PubChem BioAssay (NCI).

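All cell lines were grown in 96-well plates and treated with compound for 48 hours. GI50 is the concentration that inhibits growth by half. TGI: total growth inhibition.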 A value given as a limit tells only on which side of the number the result lay.

The subject of the assay is MDA-MB-468 breast. The experiment in a line: NCI tumour cell line growth inhibition, 48 h.
As for `O=[N+]([O-])c1ccc([I+]c2ccccc2)cc1`, the GI50 was 1250 nM and the TGI came to 4130 nM.

With `CCOC(=O)/C(=C/c1c(-c2ccccc2)[nH]c2ccccc12)C(=O)c1ccc(Cl)cc1`, the GI50 was 4360 nM and the TGI is more than 100000 nM.

For `Oc1ccc(-c2nc(-c3ccc(F)cc3)c(-c3ccncc3)[nH]2)cc1`, the GI50 is 6570 nM and the TGI came to 44400 nM.

`COc1cc2nc(-c3ccc(Cl)cc3)cc(OCCCN3CCC(O)CC3)c2cc1OC`: the GI50 is 1560 nM and the TGI is 4040 nM.

On to `Cn1cc(-c2csc(-c3cn(C)c4ncccc34)n2)c2ccccc21`, for which the GI50 is 445 nM and the TGI amounted to 6600 nM.

As for `S=c1nc(/C=C/c2ccc(Cl)c(Cl)c2)[nH][nH]1`, the GI50 was more than 100000 nM and the TGI was more than 100000 nM.

For the molecule `O=C(/C=C/c1cccnc1)/C=C/c1cccnc1`, the GI50 is 762 nM and the TGI came out at 2220 nM.

With `C=C1CCC2C3(C)COC(c4cccc(Cl)c4)OC3CCC2(C)C1/C=C/C1=CCOC1=O` (stereo not drawn), the GI50 is 1420 nM and the TGI is 7820 nM.

As for `COc1cccc(C2C3=C(COC3=O)N(CCO)c3cc4c(cc32)CCC4)c1` (stereo not drawn), the GI50 was 21.6 nM and the TGI stood at 177 nM.

As to `Cc1ccc2c(c1)/C(=N\N=C/c1cn(C(C)C)c3ccccc13)C(=O)N2`, the GI50 was 1840 nM and the TGI is more than 100000 nM.

As to `C#CCSc1nnnn1-c1ccc(Br)c(C)c1`, the GI50 was 21200 nM and the TGI was determined as 79700 nM.

For `CCN1C(=O)N(CC)C2C1NN=c1s/c(=C\c3ccc([N+](=O)[O-])cc3)c(=O)n12` (stereo not drawn), the GI50 was 409 nM and the TGI was found to be 7140 nM.

With `CC[C@]12C=CCN3CC[C@]4(C(=C(C(=O)OC)C1)Nc1ccccc14)[C@@H]32`, the GI50 was 3400 nM and the TGI came out at 15000 nM.

As for `Cn1cccc1C1CC(=O)N(CCC[Se]C#N)C1=O` (stereo not drawn), the GI50 is 2680 nM and the TGI stood at 9290 nM.

As for `CCN(CC)c1ccc(/C=C/C2=[N+](C)c3ccccc3C2(C)C)cc1`, the GI50 was 175 nM and the TGI is 5880 nM.

Turning to `Nc1nccc(C#Cc2cncnc2Nc2ccc(OCc3cccc(F)c3)c(Cl)c2)n1`, the GI50 is 1510 nM and the TGI came out at 4370 nM.

Consider `N=C(N)c1ccc(-c2ccc(-c3ccccc3)o2)cc1`, for which the GI50 is 2120 nM and the TGI came to 4100 nM.

`C/C(=N\NC(=S)Nc1ccccc1)c1ccccn1`: the GI50 is less than 13.2 nM and the TGI amounted to 115 nM.

As for `O=C1/C(=C\c2ccccc2)CN(C(=O)c2ccccc2F)C/C1=C\c1ccccc1`, the GI50 was 1810 nM and the TGI was determined as 3890 nM.

For `O=S(=O)(Nc1ccc(-c2nc(-c3cccc(O)c3)c(-c3ccnc(Br)c3)[nH]2)cc1)c1ccccc1`, the GI50 was 1850 nM and the TGI is 5470 nM.

Turning to `CCN(CC)CCN1C(=O)c2c(c3c4cc(Br)ccc4[nH]c3c3ccc4ccccc4c23)C1=O`, the GI50 was 1520 nM and the TGI was 3450 nM.

Turning to `C=C(CNCCc1ccc(O)cc1)[C@@H]1CC[C@]2(CO)CC[C@]3(C)[C@H](CC[C@@H]4[C@@]5(C)CCC(NCCO)C(C)(C)[C@@H]5CC[C@]43C)[C@@H]12` (stereo partly drawn), the GI50 was 1260 nM and the TGI is 2920 nM.

Regarding `COc1cccc(N2CCN(C3=C(Cl)C(=O)c4ncccc4C3=O)CC2)c1`, the GI50 was 1750 nM and the TGI came to 3430 nM.

With `c1ccc(COc2ccc(Nc3ncnc4ccc(-c5ccco5)cc34)cc2)cc1`, the GI50 was 480 nM and the TGI came out at 5320 nM.

As to `Cn1cc(-c2ccc3c(c2)ncn3-c2ccc(CC(=O)Nc3cc(C(C)(C)C)on3)cc2)cn1`, the GI50 is 2830 nM and the TGI is 16500 nM.

With `O=C(Nc1ccc(-n2cc(-c3ccncc3)c(-c3ccc(O)c(Cl)c3)n2)cc1)c1ccc(Cl)c(Cl)c1`, the GI50 is 4250 nM and the TGI was more than 32500 nM.

On to `CC1OC(OC2C(OC3CCC4(C)C(CCC5(C)C4CC=C4C6CC(C)(C)CCC6(CO)C(O)CC45C)C3(C)C)OC(C(=O)O)C(OC3OC(COC4OC(CO)C(O)C(O)C4O)C(O)C(O)C3O)C2O)C(O)C(O)C1O` (stereo not drawn), for which the GI50 is 1850 nM and the TGI stood at 6810 nM.

On to `CCCCCCCCCCCCCCCc1ccc(C(=O)C[n+]2ccccc2)cc1`, for which the GI50 is 1550 nM and the TGI was 2890 nM.

Take `c1ccc(CNc2nc(Nc3ccc(-c4nc5ccccc5[nH]4)cc3)c3cn[nH]c3n2)cc1`: the GI50 is 2050 nM and the TGI was 4810 nM.

As for `COc1cc2c(c(Br)c1N)-c1cc(Br)c(N)cc1C2=O`, the GI50 was 17.2 nM and the TGI was found to be 42.1 nM.

With `CC1(C)CCC(CN2CCN(c3ccc(C(=O)NS(=O)(=O)c4ccc(NCC5CCOCC5)c([N+](=O)[O-])c4)c(Oc4cnc5[nH]ccc5c4)c3)CC2)=C(c2ccc(Cl)cc2)C1`, the GI50 was 2150 nM and the TGI is 7160 nM.

As to `Cc1nc(N=C(N)N)nc2ccc3ccccc3c12`, the GI50 was 430 nM and the TGI was determined as 2060 nM.

Take `Cn1cc(-c2nonc2-c2cn(C)c3ccc(Br)cc23)c2ccccc21`: the GI50 was 1560 nM and the TGI worked out at 5170 nM.

With `C[C@@H](Oc1cc(-n2cnc3ccc(OCC4CCN(C)CC4)cc32)sc1C(N)=O)c1ccccc1C(F)(F)F`, the GI50 was 44.2 nM and the TGI came to 192 nM.
